Test results as given in ChEMBL document CHEMBL6103615, “Thymidylate Kinase-Targeted Antimicrobial Peptides via Phage Display: A Novel Strategy against Gram-Negative Bacteria” (J Med Chem, 2025).
Converted amounts (≈) assume the structure as drawn. The source made the active and inactive calls. The calls are words filed in the database; no cut-off is given here.

Columns and labels:
[1] = tested on: Lactiplantibacillus plantarum; experiment: Antibacterial activity against Lactobacillus plantarum 8014 incubated for 12 to 18 hrs by microbroth dilution method; type: functional; details: time 12-18 hrs
[2] = tested on: Staphylococcus aureus; experiment: Antibacterial activity against methicillin-resistant Staphylococcus aureus 43300 incubated for 12 to 18 hrs by microbroth dilution method; type: functional; details: time 12-18 hrs
[3] = tested on: Staphylococcus aureus; experiment: Antibacterial activity against Staphylococcus aureus 29213 incubated for 12 to 18 hrs by microbroth dilution method; type: functional; details: time 12-18 hrs
[4] = tested on: Enterococcus faecalis; experiment: Antibacterial activity against Enterococcus faecalis 29212 incubated for 12 to 18 hrs by microbroth dilution method; type: functional; details: time 12-18 hrs
[5] = tested on: Pseudomonas aeruginosa; experiment: Antibacterial activity against Pseudomonas aeruginosa 27853 incubated for 12 to 18 hrs by microbroth dilution method; type: functional; details: time 12-18 hrs
[6] = tested on: Salmonella typhimurium; experiment: Antibacterial activity against Salmonella typhimurium 7731 incubated for 12 to 18 hrs by microbroth dilution method; type: functional, Salmonella enterica subsp. enterica serovar Typhimurium; details: Salmonella enterica, time 12-18 hrs
[7] = Antibacterial activity against Salmonella choleraesuis 21493 incubated for 12 to 18 hrs by microbroth dilution method; type: functional, Salmonella enterica subsp. enterica serovar Choleraesuis; details: Salmonella enterica, time 12-18 hrs
[8] = Selectivity ratio of MIC for antibacterial activity against Staphylococcus epidermidis 12228 to MIC for antibacterial activity against Escherichia coli K91; type: functional
[9] = Selectivity ratio of MIC for antibacterial activity against Enterococcus faecalis 29212 to MIC for antibacterial activity against Escherichia coli K95; type: functional
[10] = Selectivity ratio of MIC for antibacterial activity against Escherichia coli 078 to MIC for antibacterial activity against Escherichia coli K101; type: functional
[11] = Selectivity ratio of MIC for antibacterial activity against Escherichia coli K99 to MIC for antibacterial activity against Escherichia coli K102; type: functional
[12] = (§1) Binding affinity to 6xHis-tagged recombinant Escherichia coli TMK assessed as dissociation constant by BLI assay
[13] = tested on: Escherichia coli; experiment: as §1
[14] = tested on: Bacteria; experiment: Antibacterial activity against bacterial cells at 1 to 128 uM in presence of CaCl; type: functional, organism-based; details: dose 1-128 µM
[15] = tested on: Bacteria; experiment: Antibacterial activity against bacterial cells at pH 2 to 12; type: functional
[16] = tested on: Bacteria; experiment: Antibacterial activity against bacterial cells at 1 to 64 uM incubated for 4 hrs in presence of 50 percent serum; type: functional, organism-based; details: dose 1-64 µM
[17] = tested on: Escherichia coli; experiment: Induction of resistance development in Escherichia coli K88 at sub-MIC measured after 20 passages; type: functional, organism-based
[18] = tested on: Escherichia coli; experiment: Induction of outer membrane permeability in Escherichia coli K88 assessed as NPN leakage at 2 uM relative to control; type: functional
[19] = tested on: Escherichia coli; experiment: Induction of cytoplasmic membrane depolarization in Escherichia coli K88 at 2 uM by DiSC3-5 dye based analysis; type: functional, organism-based
[20] = tested on: Escherichia coli; experiment: Disruption of membrane integrity in Escherichia coli K88 at 2 uM by PI staining based flow cytometry (reference value: 0.1 %); type: functional
[21] = tested on: Escherichia coli; experiment: Induction of morphological changes in Escherichia coli K88 assessed as membrane folding at 2 uM incubated for 1 hr by SEM analysis; type: functional, organism-based
[22] = tested on: Escherichia coli; experiment: Induction of morphological changes in Escherichia coli K88 assessed as membrane contraction at 2 uM incubated for 1 hr by SEM analysis; type: functional, organism-based
[23] = tested on: Escherichia coli; experiment: Induction of morphological changes in Escherichia coli K88 assessed as membrane permeability at edges at 2 uM incubated for 1 hr by TEM analysis; type: functional, organism-based
[24] = tested on: Escherichia coli; experiment: Induction of morphological changes in Escherichia coli K88 assessed as cytoplasmic leakage at 2 uM incubated for 1 hr by TEM analysis; type: functional, organism-based
[25] = tested on: Escherichia coli; experiment: Induction of ROS generation in Escherichia coli K88 assessed as increase in fluorescence intensity incubated for 1 hr by DCFH-DA dye based analysis; type: functional, organism-based
[26] = tested on: Escherichia coli; experiment: Inhibition of DNA migration in Escherichia coli K88 at 16 uM incubated for 40 mins by agarose gel electrophoresis.; type: functional, organism-based
[27] = Toxicity in ICR mouse assessed as impaired mobility at 40 mg/kg, ip measured for 30 to 4 hrs; type: organism-based; details: in vivo, time 30-4 hrs
[28] = Toxicity in ICR mouse assessed as body weight change at 10 to 40 mg/kg, ip treated for 3 days consecutively; type: organism-based; details: in vivo, 72 h, dose 10-40 mg/kg, time 3 day
[29] = Toxicity in ICR mouse assessed as change in serum BUN level at 10 to 40 mg/kg, ip treated for 3 days consecutively; type: organism-based; details: in vivo, 72 h, dose 10-40 mg/kg, time 3 day
[30] = Toxicity in ICR mouse assessed as change in serum CREA level at 10 to 40 mg/kg, ip treated for 3 days consecutively; type: organism-based; details: in vivo, 72 h, dose 10-40 mg/kg, time 3 day
[31] = Toxicity in ICR mouse assessed as change in serum ALP level at 10 to 40 mg/kg, ip treated for 3 days consecutively; type: organism-based; details: in vivo, 72 h, dose 10-40 mg/kg, time 3 day
[32] = Toxicity in ICR mouse assessed as change in serum TBIL level at 10 to 40 mg/kg, ip treated for 3 days consecutively; type: organism-based; details: in vivo, 72 h, dose 10-40 mg/kg, time 3 day
[33] = Toxicity in ICR mouse assessed as change in kidney index at 10 to 40 mg/kg, ip treated for 3 days consecutively; type: organism-based; details: in vivo, 72 h, dose 10-40 mg/kg, time 3 day
[34] = tested on: Escherichia coli; experiment: Antibacterial activity against Escherichia coli K88 infected in ICR mouse model of peritoneal sepsis assessed as bacterial load reduction in liver at 20 mg/kg, ip measured after 10 hrs; type: functional, organism-based
[35] = tested on: Escherichia coli; experiment: Antibacterial activity against Escherichia coli K88 infected in ICR mouse model of peritoneal sepsis assessed as bacterial load reduction in spleen at 20 mg/kg, ip measured after 10 hrs; type: functional, organism-based
[36] = tested on: Escherichia coli; experiment: Antibacterial activity against Escherichia coli K88 infected in ICR mouse model of peritoneal sepsis assessed as reduction in granulocyte infiltration in lungs at 20 mg/kg, ip measured after 10 hrs by H and E staining based analysis; type: functional, organism-based
[37] = tested on: Escherichia coli; experiment: Antibacterial activity against Escherichia coli K88 infected in ICR mouse model of peritoneal sepsis assessed as reduction in alveolar wall thickening in lungs at 20 mg/kg, ip measured after 10 hrs by H and E staining based analysis; type: functional, organism-based
[38] = tested on: Escherichia coli; experiment: Antibacterial activity against Escherichia coli K88 infected in ICR mouse model of peritoneal sepsis assessed as reduction in blood IL-6 level at 20 mg/kg, ip measured after 10 hrs; type: functional, organism-based
[39] = tested on: Escherichia coli; experiment: Antibacterial activity against Escherichia coli K88 infected in ICR mouse model of peritoneal sepsis assessed as reduction in blood TNF-alpha level at 20 mg/kg, ip measured after 10 hrs; type: functional, organism-based

CC[C@@H](C)[C@H](NC(=O)CNC(=O)[C@@H]1CCCN1C(=O)[C@H](CCCCN)NC(=O)[C@H](Cc1c[nH]c2ccccc12)NC(=O)[C@@H](NC(=O)[C@H](CCCCN)NC(=O)[C@H](CCCCN)NC(=O)[C@H](Cc1c[nH]c2ccccc12)NC(=O)[C@H](Cc1ccc(O)cc1)NC(=O)[C@H](CCCCN)NC(=O)[C@@H](NC(=O)[C@H](CC(C)C)NC(=O)[C@H](CC(N)=O)NC(=O)CNC(=O)[C@@H](N)CO)[C@@H](C)O)[C@@H](C)CC)C(=O)N[C@@H](CCCCN)C(=O)N[C@@H](CCCCN)C(=O)N[C@@H](Cc1c[nH]c2ccccc12)C(=O)N[C@H](C(=O)N[C@@H](CCCCN)C(=O)O)[C@H](C)CC
MIC [1]: 128 µM (≈ 333 µg/mL) | MIC [2]: 128 µM (≈ 333 µg/mL) | MIC [3]: 128 µM (≈ 333 µg/mL) | MIC [4]: 128 µM (≈ 333 µg/mL) | MIC [5]: 8 µM (≈ 20.8 µg/mL) | MIC [6]: 4 µM (≈ 10.4 µg/mL) | MIC [7]: 8 µM (≈ 20.8 µg/mL) | Ratio [8]: >2 | Ratio [9]: >2 | Ratio [10]: >2 | Ratio [11]: >2 | Kd [12]: 4.72 µM | Activity [13]: Dose-dependent-effect | Activity [14]: inactive | MIC [15]: 2 µM (≈ 5.21 µg/mL) | Activity [16]: Active | Activity [17]: inactive | Activity [18]: ~50% | Activity [19]: Active | Activity [20]: 96.8% | Activity [21]: Active | Activity [22]: Active | Activity [23]: Active | Activity [24]: Active | Activity [25]: Dose-dependent-effect | inhibition [26]: Active | Activity [27]: Toxic | Activity [28]: Non-toxic | Activity [29]: Non-toxic | Activity [30]: Non-toxic | Activity [31]: Non-toxic | Activity [32]: Non-toxic | Activity [33]: Non-toxic | Activity [34]: Active; Activity Comparable To Colistin Treatment | Activity [35]: Active; Activity Comparable To Colistin Treatment | Activity [36]: Active | Activity [37]: Active | Activity [38]: Active | Activity [39]: Active
